Each structure is given as a SMILES string. ≈ marks a conversion by molar mass, not a printed value.

The nature of data set [1]: in vitro. As to conditions: dog, liver microsomes. A general note: Liver microsomes are vesicles of endoplasmic reticulum, rich in cytochrome P450 enzymes.
Description: Half-life in dog liver microsome
Data set [2] has as its target BDNF/NT-3 growth factors receptor (Homo sapiens, UniProt Q16620).
Description: Inhibition of human TRKB by FLIPR assay
Data set [3] is described as follows: in vitro. As to conditions: cat, liver microsomes.
Description: Half-life in cat liver microsome
Data set [4] deals with T1, High affinity nerve growth factor receptor (Homo sapiens, UniProt P04629).
Description: Inhibition of human TRKA by FLIPR assay
Data set [5] concerns the target T1, High affinity nerve growth factor receptor. The source holds these as a separate data set.
Description: Inhibition of human TRKA kinase domain by HTRF KinEASE biochemical assay
Data set [6] shares this target. The source holds these as a separate data set.
Description: Inhibition of human TRKA at inactive state assessed as inhibition of substrate phosphorylation using fluorescently-labelled peptide as substrate by caliper assay
Data set [7] shares this target. The source holds these as a separate data set.
Description: Inhibition of human TRKA at active state assessed as inhibition of substrate phosphorylation using fluorescently-labelled peptide as substrate by caliper assay
The nature of data set [8]: in vitro. As to conditions: dog, MDCK-MDR1.
Description: Permeability from basolateral to apical side in dog MDCK cells
A short description of data set [9]: in vitro. The conditions noted are these: dog, MDCK.
Description: Permeability from apical to basolateral side in dog MDCK cells
For data set [10], the target named is T1, High affinity nerve growth factor receptor. This is another data set of the same source.
Description: Inhibition of human TRKA at active state by kinetic based analysis
For data set [11] the target is unchanged. The source holds these as a separate data set.
Description: Inhibition of human TRKA at inactive state by kinetic based analysis

T1 sequence (P04629 whole entry): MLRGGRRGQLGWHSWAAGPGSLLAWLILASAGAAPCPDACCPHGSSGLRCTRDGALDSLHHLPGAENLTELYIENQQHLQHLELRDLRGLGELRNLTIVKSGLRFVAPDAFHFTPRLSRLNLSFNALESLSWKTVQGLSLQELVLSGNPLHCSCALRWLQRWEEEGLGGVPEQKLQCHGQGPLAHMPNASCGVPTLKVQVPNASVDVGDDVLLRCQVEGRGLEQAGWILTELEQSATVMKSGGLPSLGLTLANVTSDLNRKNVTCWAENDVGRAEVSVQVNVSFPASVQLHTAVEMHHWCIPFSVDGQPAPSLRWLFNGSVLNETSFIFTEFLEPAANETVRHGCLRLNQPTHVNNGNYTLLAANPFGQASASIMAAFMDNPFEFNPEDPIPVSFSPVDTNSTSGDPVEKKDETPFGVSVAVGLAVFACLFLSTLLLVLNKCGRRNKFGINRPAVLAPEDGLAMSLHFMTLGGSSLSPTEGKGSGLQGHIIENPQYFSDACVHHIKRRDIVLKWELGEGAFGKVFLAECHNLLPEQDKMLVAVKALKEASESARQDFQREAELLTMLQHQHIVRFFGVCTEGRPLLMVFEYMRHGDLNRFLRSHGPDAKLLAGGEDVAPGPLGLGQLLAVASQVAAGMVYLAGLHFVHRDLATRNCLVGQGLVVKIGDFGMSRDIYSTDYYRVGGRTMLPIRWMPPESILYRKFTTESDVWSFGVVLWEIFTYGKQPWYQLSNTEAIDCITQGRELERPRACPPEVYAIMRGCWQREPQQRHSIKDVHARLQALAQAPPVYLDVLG
BDNF/NT-3 growth factors receptor, sequence (Q16620 whole entry): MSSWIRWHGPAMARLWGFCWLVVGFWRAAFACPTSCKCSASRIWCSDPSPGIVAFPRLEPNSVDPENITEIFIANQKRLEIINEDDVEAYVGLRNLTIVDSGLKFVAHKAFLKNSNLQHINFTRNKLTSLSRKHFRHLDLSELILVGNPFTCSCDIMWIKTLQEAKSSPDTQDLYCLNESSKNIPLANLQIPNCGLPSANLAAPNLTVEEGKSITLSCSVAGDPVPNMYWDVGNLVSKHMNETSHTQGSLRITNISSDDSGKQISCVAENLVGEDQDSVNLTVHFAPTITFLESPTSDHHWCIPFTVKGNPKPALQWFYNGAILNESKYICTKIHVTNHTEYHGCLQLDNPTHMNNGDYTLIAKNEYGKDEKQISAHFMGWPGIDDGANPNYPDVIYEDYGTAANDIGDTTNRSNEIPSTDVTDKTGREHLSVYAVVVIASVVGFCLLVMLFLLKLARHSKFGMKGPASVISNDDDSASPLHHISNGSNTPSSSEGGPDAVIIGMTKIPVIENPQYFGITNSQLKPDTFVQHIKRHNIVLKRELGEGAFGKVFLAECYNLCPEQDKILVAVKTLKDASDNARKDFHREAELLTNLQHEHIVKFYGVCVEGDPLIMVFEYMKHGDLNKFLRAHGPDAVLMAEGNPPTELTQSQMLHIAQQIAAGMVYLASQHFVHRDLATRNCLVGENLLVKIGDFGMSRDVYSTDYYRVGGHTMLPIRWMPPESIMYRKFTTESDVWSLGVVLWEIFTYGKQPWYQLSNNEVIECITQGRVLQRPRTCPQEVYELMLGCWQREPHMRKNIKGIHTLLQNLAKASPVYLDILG
Description for physchem: Kinetic solubility of compound

Consider `NC(=O)c1ccc(-c2nnn(CC(=O)Nc3cc(C(F)(F)F)ccc3-n3cncn3)n2)cc1`, for which the half-life in “in vitro [1]” and in the data set “in vitro [3]” was 2 h throughout. The IC50 (commonly the concentration that gives 50% inhibition) in data set [2] was > 20 µM; in data set [4], > 20 µM; in data set [5] it was 0.0471 µM. Moreover, the solubility (kinetic) (in general, the concentration staying in solution when a stock, usually in DMSO, is diluted into the medium) in “physchem” worked out at 15.9 µM (≈ 7.27 µg/mL).

`COc1ccc(Cl)cc1NC(=O)Nc1ccc2nc(NC(=O)c3ccccc3)sc2c1`: the IC50 in data set [6] was > 10 µM; in data set [7] it was > 10 µM; in data set [2] it was > 20 µM; in data set [4], > 20 µM; in data set [5], 0.178 µM. Moreover, the half-life (in general, how long it takes for the measured level to halve) came out at 1.25 h in “in vitro [1]” and 0.933 h in “in vitro [3]”. The solubility (kinetic) in the data set “physchem” worked out at 1.3 µM (≈ 0.589 µg/mL).

As for `COc1ccc(-n2ncc3c(=O)n(CC(=O)Nc4cc(C(F)(F)F)ccc4Cl)cnc32)cc1`, the Papp B→A (usually how fast a substance crosses the layer from the basolateral side) in the data set “in vitro [8]” came out at 64 nm/s. Besides, the half-life in “in vitro [1]” and in “in vitro [3]” was 2 h each time. For the same compound, the IC50 in [2] was > 20 µM; in data set [4] it was 7.5 µM; in [5] it was 0.102 µM. For the same compound, the Papp A→B (usually the apparent permeability from the apical to the basolateral side of a cell layer) in the data set “in vitro [9]” was found to be 48 nm/s. In “physchem”, this compound returned a kinetic solubility of 3.5 µM (≈ 1.67 µg/mL).

With `O=C(Nc1ccc(N2CCOCC2)cc1N1CCOCC1)c1cccc(Oc2ccccc2)c1`, the IC50 was determined as 0.094 µM in data set [6] and 0.076 µM in data set [7].

With `O=C(Nc1ccc(N2CCOCC2)cc1N1CCOCC1)c1cnn(-c2ccccc2)n1`, the IC50 in data set [6] was determined as 0.021 µM; in [7], 0.045 µM; in data set [2], 15.9 µM; in data set [4], 0.17 µM; in data set [5] it was 0.0052 µM. In “in vitro [8]”, this compound returned a Papp B→A of 76 nm/s. Further, the half-life in the data set “in vitro [1]” came out at 1.35 h; in the data set “in vitro [3]” it was 0.267 h. Besides, the Ki (as a rule, a measure of affinity in units of concentration, obtained from inhibition or displacement) in data set [10] turned out to be 0.0004 µM; in data set [11], 0.001 µM. In the data set “in vitro [9]”, this compound registered a Papp A→B of 41 nm/s. In the data set “physchem”, this compound gave a kinetic solubility of 12.7 µM (≈ 5.52 µg/mL).

Source of the values: ChEMBL document CHEMBL4715685, “Synthetic inhibitor leads of human tropomyosin receptor kinase A (hTrkA)” (RSC Med Chem, 2020).
